The test system of experiment [1] is HER2+ breast cancer cells. The experiment in a line: Cell survival by MTS assay, Herceptin with or without P005091. The format is cell-based. Conditions: FIG. 4A. The method, then: (§1) P005091 increased the efficacy of the HER2 inhibitor, trastuzumab, in HER2^+ breast cancer cells, xenografts, and PDX models. HER2^+ breast cancer cells were treated with indicated concentrations of Herceptin with or without 10 μM P005091 for 72 hours. Cell survival was determined by MTS assays. Data was shown as mean values for three independent experiments, and error bars represent standard error of the mean (SEM) (n=3) (FIG. 4A). Tumor xenografts were initiated by subcutaneous inoculation of Bt474 parental and Bt474 Herceptin resistance cells in the lower back of SCID mice. Herceptin (15 mg/kg) and P005091 (10 mg/kg) were administered intraperitoneally once a week for the entire duration of the study. […] A HER2^+ patient derived xenograft model was tested by inoculation of tissues in the lower back of SCID mice (FIG. 4C). Drug treatment was same as described above. Data represent the mean±SD of 6 mice in each group.

Experiment [2] concerns HER4. The experiment in a line: Western blot of ZR-75-1 cell lysates, HER4. Conditions: ZR-75-1 cells, 10 μM P005091 for 12 hours; FIG. 5. The format is cell-based. The method, then: (§2) Breast cancer cells ZR-75-1 were treated with either 1% DMSO or 10 μM P005091 for 12 hours. Cell lysates were subjected to western blot with indicated antibodies (FIG. 5).
In general terms: In western blotting, separated proteins are transferred to a membrane and probed.

For experiment [3], the system named is HER3. Briefly: Western blot of ZR-75-1 cell lysates, HER3. The format is cell-based. To be noted: ZR-75-1 cells, 10 μM P005091 for 12 hours; FIG. 5. The method, then:
as §2

For experiment [4], the system named is HER2+ patient derived xenograft. The experiment in a line: HER2+ patient derived xenograft model in SCID mice. The format is in vivo. To be noted: Herceptin 15 mg/kg and P005091 10 mg/kg intraperitoneally once a week, FIG. 4C. The method, then:
as §1
Background: A xenograft is tissue or cells of one species grown in another, often human tumour cells in immunodeficient mice.

In experiment [5] the test system is HER1 (EGFR). The experiment in a line: Western blot of ZR-75-1 cell lysates, HER1. Type of experiment: cell-based. To be noted: ZR-75-1 cells, 10 μM P005091 for 12 hours; FIG. 5. The method, then:
as §2

Experiment [6] concerns HER2. Briefly: Western blot of ZR-75-1 cell lysates, HER2. Type of experiment: cell-based. To be noted: ZR-75-1 cells, 10 μM P005091 for 12 hours; FIG. 5. The method, then: as §2

“Also recorded” adds a separate entry of the source.

Regarding `CC(=O)c1cc([N+](=O)[O-])c(Sc2cccc(Cl)c2Cl)s1` [P005091, 1-[5-(2,3-dichlorophenyl)sulfanyl-4-nitrothiophen-2-yl]ethanone], the “sensitization effect in HER2 resistant breast cancer cell lines” value in experiment [1] (HER2 resistant breast cancer cell lines) was “sensitization effect occurred”. In addition, the “sensitization of HER2+ breast cancer cells to trastuzumab treatment (cell survival)” value in experiment [1] (four different HER2+ breast cancer cells, 10 μM P005091 with Herceptin for 72 hours) was “sensitizes; also recorded: dramatically sensitized”. Also, in experiment [2], the “HER4 protein level by Western blot” value was “down regulated”. For the same molecule, the “HER3 protein level by Western blot” value in experiment [3] is reported as “down regulated”. For the same molecule, in experiment [4], the “sensitivity of PDX model to treatment” value was “dramatically sensitized”. Moreover, the “HER1 (EGFR) protein level by Western blot” value in experiment [5] is reported as “down regulated”. In addition, in experiment [6], the “HER2 protein level by Western blot” value was “down regulated”.

The values are drawn from patent US11497729B2, “Methods and materials for treating cancer” (Mayo Foundation for Medical Education and Research, priority 2016, dated 2022).
